Assay results published in patent publication EP4559923A1, “ANTIHISTAMINE COMPOUND, AND PREPARATION METHOD THEREFOR AND USE THEREOF” (HC Synthetic Pharmaceutical Co., Ltd., priority 2022, dated 2024).
≈ marks a conversion by molar mass, not a printed value.

Experiments:
[1] = test system: histamine; assay: Muscle tone of isolated ileal smooth muscle of guinea pigs contracted with histamine; settings: Table 4, x±s, n = 8; for Antispasmodic percentage (%): relative to tone after adding histamine, 3 min; for Smooth muscle tone (g) After addition of histamine: after 0.05 mL of histamine, before compound; for Smooth muscle tone (g) Before administration: before histamine and compound
Procedure: (§1) The guinea pig was knocked unconscious with a wooden stick, and the abdomen was immediately dissected to separate the ileum about 15 cm in length. The contents of the intestinal segment were flushed with Tyrode's solution and placed in Tyrode's solution at a constant temperature of 37°C for later use, and oxygen was supplied simultaneously. The experimental intestinal tract (1 cm in length) was cut and placed into 20 ml of Tyrode's solution at a constant temperature of 37°C with a continuous oxygen supply. One end of the intestine was fixed on the ventilation hook and the other end was connected to the muscle tone transducer and led to the computer interface. The muscle tone value of the ileal smooth muscle was recorded with a BL system. The experiment was carried out after the intestinal segment contraction became stable.
(§2) After the ileal peristalsis curve stabilized, the tone values before adding the compound were recorded, and then 0.05 mL of histamine was added. […] The operation was repeated 8 times. The antispasmodic percentage was calculated using the following equation. Antispasmodic percentage; = (Tone value after adding histamine−Tone value after adding subject compound)/(Tone value after adding histamine) × 100% [formula]

[2] = Solubility in water, methanol and isopropanol; settings: for solubility Isopropanol: in isopropanol; for solubility Water: in water; for solubility Methanol: in methanol; for solubility: water
Procedure: The solubility in water, methanol, and isopropanol of the compounds of the present disclosure and the comparative compounds were measured separately.

[3] = test system: isolated ileal smooth muscle; assay: Muscle tone of isolated ileal smooth muscle of guinea pigs, compound alone; settings: Table 3, no histamine, X±s, n = 8; for Antispasmodic percentage (%): relative to tone before adding compound, 5 min; for Smooth muscle tone (g) After administration: 5 minutes after adding the drug
Procedure: as §1
After the ileum contraction curve stabilized, the tone values before adding the drug were recorded, then the drug or DMSO was added, and the average tone value of the ileum contraction curve at that point was recorded 5 minutes later. The operation was repeated 8 times. The antispasmodic percentage was calculated according to the following formula. Antispasmodic percentage =; (Tone value before adding subject compound−Tone value after adding subject compound)/(Tone value before adding subject compound) × 100% [formula]

[4] = test system: histamine-induced asthma; assay: Antiasthmatic effect on histamine-induced asthma in guinea pigs (latency period); type: in vivo; settings: X±s, n = 5; for Post-administration latency period: 1 mg/kg oral gavage, sixty minutes after administration, histamine hydrochloride spray, no asthma within 8 minutes counted as 8 minutes
Procedure: The guinea pigs were placed in a polymethyl methacrylate bell jar and a histamine hydrochloride solution was sprayed ultrasonically (0.8 mg/mL) for 40 seconds. The time point at which the guinea pigs developed asthma was recorded. The time of convulsion and fall was taken as the latency period. Guinea pigs with a latency period exceeding 180 seconds were not selected. […] The guinea pigs were administered by oral gavage at a dose of 2 mL/kg·bw. Sixty minutes after the administration, the guinea pigs were placed in bell jars, and histamine hydrochloride solution was sprayed under the same conditions as in the previous selection. The latency period for the onset of asthma was recorded. […] The results were processed statistically.

[5] = Muscle tone of isolated ileal smooth muscle of guinea pigs contracted with histamine; settings: Table 4; 3 minutes after adding 0.05 mL compound at maximum histamine contraction; x±s, n = 8
Procedure: as §1, §2

[6] = Accelerated stability test; type: physicochemical; settings: 40°C ± 2°C, relative humidity 75% ± 5%; for remaining at 730 h / remaining at 1460 h / remaining at 2190 h / remaining at 4380 h: storage 75% relative humidity, read-out: Content

SMILES | Antispasmodic percentage (%) [1] | solubility Isopropanol [2] | Antispasmodic percentage (%) [3] | Post-administration latency period [4] | Smooth muscle tone (g) After administration [5] | Smooth muscle tone (g) After administration [3] | solubility Water [2] | other results
O=P(O)(O)OCCCN1CCC(=C2c3ccc(Cl)cc3CCc3cccnc32)CC1 [Compound III-7] | 65.36±17.20% | 22 mg/mL (≈ 49 mM) | 29.88±18.88% | 382.57 ± 51.11 s |  |  |  | 
O=P(O)(O)OCCCCN1CCC(=C2c3ccc(Cl)cc3CCc3cccnc32)CC1 [Compound III-10] | 65.24±18.39% | 25 mg/mL (≈ 54 mM) |  | 370.80 ± 51.23 s | 1.22 ± 0.19 g | 1.15 ± 0.26 g |  | 
O=P(O)(O)OCCCCCN1CCC(=C2c3ccc(Cl)cc3CCc3cccnc32)CC1 [Compound III-13] | 65.58±18.20% | 25 mg/mL (≈ 52.4 mM) | 32.02±16.85% | 366.81 ± 53.10 s | 1.17 ± 0.20 g | 1.21 ± 0.26 g | 32 mg/mL (≈ 67.1 mM) | Smooth muscle tone (g) After addition of histamine [1]: 3.40 ± 0.98 g; Smooth muscle tone (g) Before administration [1]: 1.80 ± 0.16 g; Smooth muscle tone (g) Before administration ([3]; before adding the drug): 1.78 ± 0.25 g; Pre-administration latency period ([4]; baseline before dosing, histamine hydrochloride spray 0.8 mg/mL for 40 seconds): 104.38 ± 50.27 s
O=P(O)(O)OCCCN1CCC(=C2c3ccc(Cl)cc3CCc3cccnc32)CC1 [Compound IV-3] | 64.11±19.66% | 1 mg/mL (≈ 2.23 mM) | 32.00±19.55% | 375.50 ± 47.99 s |  |  |  | solubility Methanol [2]: 21 mg/mL (≈ 46.8 mM); solubility [2]: 390 mg/mL (≈ 869 mM)
O=P(O)(O)OCCCCN1CCC(=C2c3ccc(Cl)cc3CCc3cccnc32)CC1 [Compound IV-4] | 66.76±19.71% |  | 33.33±20.91% | 380.22 ± 51.19 s | 1.16 ± 0.22 g | 1.14 ± 0.21 g |  | solubility [2]: 402 mg/mL (≈ 868 mM); Content ([6]; Month 0): 99.6%; Description ([6]; Month 0): White powder; Related substances ([6]; Month 0): 0.03%; Description ([6]; Month 1): White powder; Related substances ([6]; Month 1): 0.04%; Description ([6]; Month 2): White powder; Related substances ([6]; Month 2): 0.05%; Description ([6]; Month 3): White powder; Related substances ([6]; Month 3): 0.06%; Description ([6]; Month 6): White powder; Related substances ([6]; Month 6): 0.10%; remaining at 730 h ([6]; Month 1): 99.6%; remaining at 1460 h ([6]; Month 2): 99.6%; remaining at 2190 h ([6]; Month 3): 99.6%; remaining at 4380 h ([6]; Month 6): 99.5%
O=P(O)(O)OCCCCN1CCC(=C2c3ccc(Cl)cc3CCc3cccnc32)CC1 [Compound IV-5] | 65.70±20.11% | 1 mg/mL (≈ 2.16 mM) | 31.60±20.10% | 362.49 ± 50.00 s | 1.19 ± 0.23 g | 1.19 ± 0.27 g | 386 mg/mL (≈ 834 mM) | solubility Methanol [2]: 22 mg/mL (≈ 47.5 mM); Content ([6]; Month 0): 99.5%; Description ([6]; Month 0): White powder; Related substances ([6]; Month 0): 0.03%; Description ([6]; Month 1): White powder; Related substances ([6]; Month 1): 0.06%; Content ([6]; Month 1, 43800 min): 99.5%; Description ([6]; Month 2): White powder; Related substances ([6]; Month 2): 0.10%; Content ([6]; Month 2, 87600 min): 99.4%; Description ([6]; Month 3): White powder; Related substances ([6]; Month 3): 0.13%; Content ([6]; Month 3, 131400 min): 99.4%; Description ([6]; Month 6): White powder; Related substances ([6]; Month 6): 0.28%; Content ([6]; Month 6, 262800 min): 99.2%
O=P(O)(O)OCCCCCN1CCC(=C2c3ccc(Cl)cc3CCc3cccnc32)CC1 [Compound IV-6] | 65.80±19.03% | 5 mg/mL (≈ 10.5 mM) | 34.10±18.93% | 361.94 ± 53.19 s | 1.18 ± 0.21 g | 1.14 ± 0.25 g | 367 mg/mL (≈ 769 mM) | solubility Methanol [2]: 30 mg/mL (≈ 62.9 mM)
O=P(O)(O)OCOCCCN1CCC(=C2c3ccc(Cl)cc3CCc3cccnc32)CC1 [Compound IV-9] | 65.89±19.76% |  | 32.75±19.48% | 361.82 ± 51.36 s | 1.18 ± 0.29 g | 1.17 ± 0.25 g |  | Content ([6]; Month 0): 99.7%; Description ([6]; Month 0): White powder; Related substances ([6]; Month 0): 0.03%; Description ([6]; Month 1): White powder; Related substances ([6]; Month 1): 0.04%; Description ([6]; Month 2): White powder; Related substances ([6]; Month 2): 0.05%; Description ([6]; Month 3): White powder; Related substances ([6]; Month 3): 0.06%; Description ([6]; Month 6): White powder; Related substances ([6]; Month 6): 0.10%; remaining at 730 h ([6]; Month 1): 99.7%; remaining at 1460 h ([6]; Month 2): 99.7%; remaining at 2190 h ([6]; Month 3): 99.7%; remaining at 4380 h ([6]; Month 6): 99.6%
Clc1ccc2c(c1)CCc1cccnc1C2=C1CCNCC1 [Desloratadine, desloratadine, reference compound] |  |  |  |  |  |  | Practically insoluble | 
OCCCCN1CCC(=C2c3ccc(Cl)cc3CCc3cccnc32)CC1 [Hydroxybutyl desloratadine, hydroxybutyl desloratadine, reference compound] |  |  | 23.53±12.32% | 279.71 ± 54.91 s | 1.44 ± 0.44 g | 1.30 ± 0.23 g | Practically insoluble | Smooth muscle tone (g) After addition of histamine [1]: 3.41 ± 0.92 g; Smooth muscle tone (g) Before administration [1]: 1.73 ± 0.12 g
OCCN1CCC(=C2c3ccc(Cl)cc3CCc3cccnc32)CC1 [Hydroxyethyl desloratadine, hydroxyethyl desloratadine, reference compound] | 57.94±11.45% |  | 23.97±10.32% | 284.11 ± 59.10 s | 1.43 ± 0.41 g | 1.30 ± 0.30 g | Practically insoluble | 
OCCCCCCN1CCC(=C2c3ccc(Cl)cc3CCc3cccnc32)CC1 [Hydroxyhexyl desloratadine, hydroxyhexyl desloratadine, reference compound] |  |  | 26.31±13.96% | 283.84 ± 58.88 s | 1.43 ± 0.43 g | 1.26 ± 0.23 g | Practically insoluble | 
OCCCCCN1CCC(=C2c3ccc(Cl)cc3CCc3cccnc32)CC1 [Hydroxypentyl desloratadine, hydroxypentyl desloratadine, reference compound] |  |  | 28.73±11.32% | 280.29 ± 58.19 s | 1.41 ± 0.42 g | 1.24 ± 0.22 g | Practically insoluble | 
OCCCN1CCC(=C2c3ccc(Cl)cc3CCc3cccnc32)CC1 [Hydroxypropyl desloratadine, hydroxypropyl desloratadine, reference compound] |  |  | 24.70±13.43% | 288.33 ± 58.12 s | 1.41 ± 0.42 g | 1.28 ± 0.25 g | Practically insoluble | 
